Where “and” joins values, the source holds several entries; their conditions need not be identical. Equal values may be shown once.
Key:
stage 2 early-OPCs [1] = test: HD-DoE 12-factor model for stage 3 (version 1) on stage 2 early-OPCs; format: cell-based, human
Description: In another model, the effects of Activin A and TTNPB along with LDN193189, MHY1485, PDGF-AA, AICAR, FGF2, CHIR99021, DBZ, MK2206, Purmorphamine and T3+T4 were tested on gene profile of differentiating cells. When this model was optimized for maximum expression of SOX10 at 54.7, we observed Activin A again had positive regulatory impact on its expression, with factor contribution of 4.7. Other positive factors included MK2206, with the highest factor contribution at 16.2, MHY1485 at 11.49, CHIR99021 at 9.6, DBZ at 9.3, FGF2 at 3.6 and PDGF-AA, with factor contribution less than 3 (FIG. 20).
In this model, we also investigated the conditions of expression of another important OPC gene, CSPG4 (Goldman and Kuypers (2015) Development 142:3983-95: van Tilborg et al. (2018) Glia 66:221-238).
Dynamic profile analysis was used to better assess the impact of the factors on our selected genes and find the combination set that can optimize their expression (FIG. 22). According to this analysis, even though Activin A has a positive effect on SOX10, it decreases level of PDGFRa and OLIG1. […] Moreover, SOX10 is one of the main transcription factors of oligodendrocytes, along with OLIG2 and NKX2-2, that has shown the potential to commit the stem cells to oligodendrocytes in reprogramming efforts (Wang et al. (2014) Proc Natl Acad Sci USA 111:E2885-94; Garciá-León et al. (2018) Stem Cell Reports 10:655-672). […] One of the main challenges of differentiating cells to oligodendrocyte fate is controlling the mixed population and increasing the purity of the culture by committing more cells to oligodendrocyte over neuronal identity. Therefore, DBZ was excluded from the final recipe.
At this point, we investigated the expression profile of a larger group of genes defining oligodendrocyte progenitor population at a later stage, including ID2, CNP and BCAN (Perlman et al. (2020). Glia 68:1291-1303; Goldman and Kuypers (2015) Development 142:3983-95). In this model, these genes were expressed at 1900, 660 and 44, respectively.

[2] = tested on: human pluripotent stem cells; test: HD-DoE #1: 8-factor model, 3-day treatment of pluripotent stem cells, gene expression; format: cell-based; conditions: for factor contribution: positive effect; for impact on NKX2-2 and OLIG2 expression levels: dynamic profile, 8-factor model
Excerpt: This example utilizes a method of High-Dimensional Design of Experiments (HD-DoE), as previously described in Bukys et al. (2020) Iscience 23:101346. The method employs computerized design geometries to simultaneously test multiple process inputs and offers mathematical modeling of a deep effector/response space. The method allows for finding combinatorial signaling inputs that control a complex process, such as during cell differentiation. It allows testing of multiple plausible critical process parameters, as such parameters impact output responses, such as gene expression. Because gene expression provides hallmark features of the phenotype of, for example, a human cell, the method can be applied to identify, and understand, which signaling pathways control cell fate. In the current example, the HD-DOE method was applied with the intent to find conditions for induction of oligodendrocyte progenitor-expressed genes, directly from the pluripotent stem cell state.
Specifically, to develop a novel method to generate oligodendrocytes, the impact of agonists and antagonists of multiple signaling pathways (herein called effectors) were tested on expression of two sets of 53 pre-selected genes after a 3-day treatment. These effectors are small molecules that are commonly used during stepwise differentiation of stem cells to specific fates. Choice of the effectors were based on current literature on neural induction in anterior ectoderm and differentiation of stem cells to oligodendrocytes.
To test the effectors, experiments with at least 8 factors were designed that can assess the response of cells to 48 or more different combinations of effectors in a range of concentrations. To analyze the models, we focused on expression of genes expressed during early development of anterior neuroectoderm and oligodendrocytes including NKX2-2, OLIG2, OLIG1, and PDGFRA. The impact of each effector on gene expression level is defined by a parameter called factor contribution that is calculated for each effector during the modeling.
This model tested 8 factors: PD0325901, MK2206, TTNPB, SC79, MHY1485, ZM336372, AGN193109 and AZD3147.

[3] = tested on: cells cultured in stage 1 and stage 2 differentiation media; test: HD-DoE 8-factor model for stage 3 (version 2); format: cell-based, human
Description: To further differentiate the cells to an oligodendrocyte progenitor identity, additional HD-DoE experiments were performed on the cells that were cultured in stage 1 and stage 2 differentiation media. After 3 days, gene expression of cells in different combinatorial conditions were investigated. At this time, we focused on maximal expression of signature oligodendrocyte progenitor genes such as SOX10, OLIG1 and PDGFRa (Goldman and Kuypers (2015) Development 142:3983-95: Marques et al. (2016) Science 352:1326-1329). In one 8-factor model, individual and combinatorial effects of TTNPB (an RA agonist), CHIR99021, FGF-2, IGF-1, AGN193109, Purmorphamine, MHY1485 (a mTOR pathway agonist) and SC79 (an AKT pathway agonist) were tested to guide the cells toward a SOX10/PDGFRa positive population. […] CHIR99021 was also positive, with a factor contribution of 8.1 (FIG. 33).
Other positive factors were IGF-1, with a factor contribution of 11.2, CHIR99021, with a factor contribution of 8.5 and TTNPB, with a factor contribution below 1 (FIG. 34).
To confirm the impact of TTNPB, FGF-2 and IGF-1 on a bigger scale, we investigated the expression profile of a larger group of genes defining late oligodendrocyte progenitor population, such as ID2, CSPG4, FYN, SOX8, PLP1 and BCAN (Perlman et al. (2020). Glia 68:1291-1303; Goldman and Kuypers (2015) Development 142:3983-95; van Tilborg et al. (2018) Glia 66:221-238) and neuronal genes such as NEUROD1, NEUROG1 and NEUROG2 in presence of IGF-1, FGF-2 or TTNPB.

stage 2 early-OPCs [4] = test: HD-DoE 8-factor model for stage 3 (version 1) on stage 2 early-OPCs; format: cell-based, human
Description: To further differentiate the cells to an oligodendrocyte progenitor identity, additional HD-DoE experiments were performed on the cells that were cultured in stage 1 and stage 2 differentiation media. After 3 days, gene expression of cells in different combinatorial conditions were investigated. At this time, we focused on maximal expression of signature oligodendrocyte progenitor genes such as SOX10, OLIG1 and PDGFRa (Goldman and Kuypers (2015) Development 142:3983-95; Marques et al. (2016) Science 352:1326-1329). In one 8-factor model, individual and combinatorial effects of LDN193189, SUN 11602, Activin A, Biotin, TTNPB, Isoproterenol, linoleic acid and T3+T4 were tested.
The same model was also optimized for maximum expression of PDGFRa at 3510.9. Two factor specifically, TTNPB and Linoleic acid determined the expression level of PDGFRa with factor contribution of 71.6 and 22.1, respectively (FIG. 17). […] The model was also optimized for highest expression of SOX10 at 18.8. In this optimization, TTNPB was the only input that could elevate the expression level of the selected gene (FIG. 18).
Dynamic profile analysis was utilized to explore combination sets that can optimize expression of all three selected genes. […] Since Activin A is the main compound regulating expression level of OLIG1, we investigated the changes in the plots after addition of Activin A and observed that expression level of SOX10 is still in the target range and PDGFRa is expressed at a high level too (2520).

[5] = tested on: human pluripotent stem cells; test: HD-DoE #2: 13-factor model, differentiation toward anterior neuroectoderm, gene expression; format: cell-based; conditions: model optimized for highest expression of FEZF2 at 4466; positive
Excerpt: To further enhance the conditions for oligodendrocyte differentiation from pluripotency, we performed an additional HD-DoE experiment. We obtained additional gene regulatory models that were used for preparation of a differentiation protocol. The basis of this was a 13-factor HD-DoE experiment with focus on initiation of differentiation of cells toward anterior neuroectoderm. In this model, we focused on expression of FEZF2 and OTX2.
As shown in the results summarized in FIG. 4, the model was optimized for highest expression of OTX2 at 12755.9. According to the model of high expression of OTX2, seven effectors had positive contribution including MK2206, PD0325901, CHIR99021, LDN193189, Go6983, PD173074 and BLU9931 with highest factor contribution of 22.2 for MK2206 and lowest factor contribution of 1.7 for PD173074 and BLU9931.
As shown in the results summarized in FIG. 5, the model was optimized for highest expression of FEZF2 at 4466. When the model was optimized for maximum expression level of FEZF2, three effectors including LDN193189 with factor contribution of 19.5, PD0325901 with factor contribution of 14.6 and MK2206 with factor contribution of 12.3 were common with previous condition and three new effectors including purmorphamine-500 nM, XAV939 and SC79 were introduced.
As shown in the results summarized in FIG. 6, to fine-tune the recipe and find the optimum combination of factors for high expression of both OTX2 and FEZF2, dynamic profiling analysis was done. […] Therefore, these two factors were added to the optimized culture recipe.

pre-OPCs = test: HD-DoE 12-factor model for stage 2 (version 1), 3 days on stage 1 pre-OPCs; format: cell-based, human; conditions: optimized for maximum expression of OLIG2 at 1841.6
Excerpt: To engineer the recipe of stage 2 of differentiation, cells were first cultured in the stage 1 media described in Example 1 and then treated with combinations of 8 or 12 factors for 3 days and the gene expression of cells in each condition was modeled. At this point, due to short duration of culture (only six days in vitro), we decided to focus on maximal expression of OLIG2 and maintenance of high expression of NKX2-2, while initiating expression of SOX10, OLIG1 and PDGFRa, to guide the cells towards oligodendrocyte fate (Emery and Lu (2015). Cold Spring Harb Perspect Biol. 7:a020461; Perlman et al. (2020). Glia 68:1291-1303; Goldman and. Kuypers (2015) Development 142:3983-95).
In one 12-factor model, the individual and combinatorial impact of SUN 11602 an agonist for FGF signaling pathway, FGF2, Activin A an activator of one of the receptors of TGF-b superfamily, A 8301, an inhibitor of TGF-b pathway, CHIR99021 a WNT activator, AGN193109 a RA antagonist, MK2206 an AKT inhibitor, Purmorphamine an agonist of SHH signaling pathway, AZD3147 an antagonist of mTOR pathway, MHY1485 an agonist of mTOR pathway, SC79 an agonist of AKT pathway and G06983 an inhibitor of PKC pathway, were tested.
Dynamic profile analysis was used to assess the expression levels of other genes of interests, such as NKX2-2, OLIG1 and SOX10, while the model is maximized for OLIG2. Activin A and SUN 11602 were brought down to zero due to their very low factor contribution. We observed when the model is optimized, the expression level of NKX2-2 is at 3000, PDGFRa at 1000, OLIG1 at 80 and SOX10 at 15 (FIG. 12).

[6] = model optimized for maximum expression of NKX2-2
[7] = model optimized for maximum expression of PDGFRA
[8] = optimized for maximum expression of OLIG1 at 256, positive impact
[9] = optimized for maximum expression of PDGFRa at 3510.9, positive

With C/C(=C\c1ccc(C(=O)O)cc1)c1ccc2c(c1)C(C)(C)CCC2(C)C [TTNPB] the factor contribution (stage 2 early-OPCs [1]; optimized for maximum expression of CSPG4 at 38.6, positive) was 15.96 and 15.9, the factor contribution [2, 6] was 31.3 and the factor contribution [2, 7] was 49.01. For the same compound, the “effect on late OPC genes and neuronal genes” value ([3]; factor plots vs concentration) was “negative effect of TTNPB on OPC genes and its positive effect on neuronal genes”, the factor contribution ([3]; optimized for SOX10 at 41.04, positive) was 17.98 and the factor contribution ([3]; optimized for maximum expression of PDGFRa at 853.4, positive) was “below 1”. For the same compound, the factor contribution (stage 2 early-OPCs [4]; optimized for highest expression of SOX10 at 18.8, positive) was 8, the factor contribution (stage 2 early-OPCs [4]; [8]) was 19.11 and 19.1 and the factor contribution (stage 2 early-OPCs [4]; [9]) was 71.6.

c1ccc2c(-c3cnn4cc(-c5ccc(N6CCNCC6)cc5)cnc34)ccnc2c1 [LDN193189] gave a factor contribution [5] of 19.5, a factor contribution (stage 2 early-OPCs [1]; optimized for maximum expression of CSPG4 at 38.6, negative impact) of 16.9 and a factor contribution (stage 2 early-OPCs [4]; [8]) of 10.8.

Work on Cc1c(C)c(NCC(=O)N(C)C2CCN(Cc3ccc(C(N)=O)cc3)CC2)c(C)c(C)c1N [SUN 11602] yielded a factor contribution (stage 2 early-OPCs [4]; [8]) of 3.7.

In the case of O=[N+]([O-])c1ccc(Nc2nc(N3CCOCC3)nc(N3CCOCC3)n2)cc1 [MHY1485], the factor contribution (stage 2 early-OPCs [1]; optimized for maximum expression of SOX10 at 54.7, positive) is reported as 11.49 and 11.5, the factor contribution [2, 6] is reported as 13.8 and the factor contribution [2, 7] is reported as 13.4. It also gave a factor contribution (pre-OPCs; negative impact) of 22.5.

Compound CCCCC/C=C\C/C=C\CCCCCCCC(=O)O [Linoleic acid] has a factor contribution (stage 2 early-OPCs [4]; [9]) of 22.1.

For Cc1ccc(NC(=O)c2cccc(N(C)C)c2)cc1NC(=O)c1ccc(O)cc1 [ZM336372], the “impact on NKX2-2 and OLIG2 expression levels” value [2] was “negatively impacting” and the factor contribution [2, 7] was < 1.

CCOC(=O)C1=C(N)Oc2ccc(Cl)cc2C1C(C#N)C(=O)OCC (centres unmarked) [SC79] showed a factor contribution [2, 6] of 1.47, a factor contribution ([3]; optimized for SOX10 at 41.04, negative impact) of 30.2 and a factor contribution (pre-OPCs; positive regulatory effect) of 3.6.

With O=C(NOC[C@H](O)CO)c1ccc(F)c(F)c1Nc1ccc(I)cc1F [PD0325901] the factor contribution [5] was 14.6, the “impact on NKX2-2 and OLIG2 expression levels” value [2] was “negatively impacting” and the factor contribution [2, 7] was 30.6 and 30.05.
